From ChEMBL document CHEMBL3393019, “Synthesis and evaluation of NS5A inhibitors containing diverse heteroaromatic cores” (Bioorg Med Chem Lett, 2015)

What was measured:
Hepatitis C virus [1] = experiment: Antiviral activity against Hepatitis C virus genotype 1a infected in W11.8 cells assessed as decrease in NS5A expression in replicon cell after 4 days by luminescence based ELISA; assay type: functional, Hepacivirus hominis; conditions: subtype 1a, W11.8, 96 h
[2] = Cytotoxicity against human Huh7ET cells by [3H]thymidine incorporation assay; assay type: cell-based, Huh-7
Hepatitis C virus [3] = experiment: Antiviral activity against Hepatitis C virus genotype 1b infected in human Huh-5.2 cells assessed as decrease in HCV replicon RNA replication after 4 days by luciferase assay; assay type: functional, cell-based, Hepacivirus hominis; conditions: Huh-5-2, 96 h
[4] = Half life in po dosed rat; assay type: ADME, organism-based; conditions: in vivo
[5] = Clearance in iv dosed rat; assay type: ADME, organism-based; conditions: in vivo
[6] = Oral bioavailability in rat; assay type: ADME, organism-based; conditions: in vivo
[7] = Volume of distribution at steady state in iv dosed rat; assay type: ADME, organism-based; conditions: in vivo, read-out: Vdss
[8] = Cmax in po dosed rat; assay type: ADME, organism-based; design: route oral; conditions: in vivo
[9] = Half life in iv dosed rat; assay type: ADME, organism-based; conditions: in vivo
[10] = AUC (0 to 8 hrs) in po dosed rat; assay type: ADME, organism-based; design: time < 8 hr, route oral; conditions: plasma

SMILES | EC50 (Hepatitis C virus [1]) [nM] | CC50 [2] [nM] | EC50 (Hepatitis C virus [3]) [nM] | half-life [4] [h] | clearance [5] [mL/min/kg] | bioavailability [6] [%] | Vd [7] [L/kg] | Cmax [8] [ng/mL] | half-life [9] [h] | AUC(0-t) at 8 h [10] [ng·h/mL]
COC(=O)N[C@H](C(=O)N1C[C@@H](C)C[C@H]1c1nc2cc(-c3ccc(-c4ccc5oc([C@@H]6C[C@H](C)CN6C(=O)[C@@H](NC(=O)OC)C(C)C)nc5c4)cc3)ccc2o1)C(C)C | > 2000 | 7000 | 223 | – | – | – | – | – | – | –
COC(=O)N[C@H](C(=O)N1C[C@@H](C)C[C@H]1c1nc2cc(-c3ccc(-c4ccc5oc([C@@H]6C[C@H](C)CN6C(=O)[C@@H](NC(=O)OC)C(C)C)nc5c4)cc3)ccc2[nH]1)C(C)C | 58 | > 20000 | 0.017 | – | – | – | – | – | – | –
COC(=O)N[C@H](C(=O)N1C[C@@H](C)C[C@H]1c1nc2cc(-c3cc4sc(-c5ccc6oc([C@@H]7C[C@H](C)CN7C(=O)[C@@H](NC(=O)OC)C(C)C)nc6c5)cc4s3)ccc2o1)C(C)C | > 2000 | > 20000 | 23 | – | – | – | – | – | – | –
COC(=O)N[C@H](C(=O)N1C[C@@H](C)C[C@H]1c1nc2cc(-c3cc4sc(-c5ccc6oc([C@@H]7C[C@H](C)CN7C(=O)[C@@H](NC(=O)OC)C(C)C)nc6c5)cc4s3)ccc2[nH]1)C(C)C | 0.032 | > 20000 | 0.003 | – | – | – | – | – | – | –
COC(=O)N[C@H](C(=O)N1C[C@@H](C)C[C@H]1c1nc(-c2ccc(-c3ccc(-c4ccc5oc([C@@H]6C[C@H](C)CN6C(=O)[C@@H](NC(=O)OC)C(C)C)nc5c4)cc3)cc2)c[nH]1)C(C)C | 11 | > 20000 | 0.023 | – | – | – | – | – | – | –
COC(=O)N[C@H](C(=O)N1C[C@@H](C)C[C@H]1c1nc2ccc(-c3ccc(-c4ccc5nc([C@@H]6C[C@H](C)CN6C(=O)[C@@H](NC(=O)OC)C(C)C)oc5c4)cc3)cc2o1)C(C)C | 630 | 7000 | 0.006 | – | – | – | – | – | – | –
COC(=O)N[C@H](C(=O)N1C[C@@H](C)C[C@H]1c1nc2cc(-c3ccc(-c4ccc5nc([C@@H]6C[C@H](C)CN6C(=O)[C@@H](NC(=O)OC)C(C)C)oc5c4)cc3)ccc2[nH]1)C(C)C | 1.8 | > 20000 | 0.008 | – | – | – | – | – | – | –
COC(=O)N[C@H](C(=O)N1C[C@@H](C)C[C@H]1c1nc2ccc(-c3cc4sc(-c5ccc6nc([C@@H]7C[C@H](C)CN7C(=O)[C@@H](NC(=O)OC)C(C)C)oc6c5)cc4s3)cc2o1)C(C)C | 43 | > 20000 | 0.019 | – | – | – | – | – | – | –
COC(=O)N[C@H](C(=O)N1C[C@@H](C)C[C@H]1c1nc2cc(-c3cc4sc(-c5ccc6nc([C@@H]7C[C@H](C)CN7C(=O)[C@@H](NC(=O)OC)C(C)C)oc6c5)cc4s3)ccc2[nH]1)C(C)C | 0.029 | > 20000 | 0.004 | 14.8 | 6.2 | 7.3 | 2.8 | 0.01 | 5.6 | 376
COC(=O)N[C@H](C(=O)N1C[C@@H](C)C[C@H]1c1nc(-c2ccc(-c3ccc(-c4ccc5nc([C@@H]6C[C@H](C)CN6C(=O)[C@@H](NC(=O)OC)C(C)C)oc5c4)cc3)cc2)c[nH]1)C(C)C | 0.164 | > 20000 | 0.005 | – | – | – | – | – | – | –
COC(=O)N[C@H](C(=O)N1C[C@@H](C)C[C@H]1c1ncc(-c2cc3sc(-c4ccc5[nH]c([C@@H]6C[C@H](C)CN6C(=O)[C@@H](NC(=O)OC)C(C)C)nc5c4)cc3s2)[nH]1)C(C)C | 0.021 | > 20000 | 0.016 | – | – | – | – | – | – | –
COC(=O)N[C@H](C(=O)N1C[C@@H](C)C[C@H]1c1ncc(-c2ccc(-c3cc4sc(-c5ccc6[nH]c([C@@H]7C[C@H](C)CN7C(=O)[C@@H](NC(=O)OC)C(C)C)nc6c5)cc4s3)cc2)[nH]1)C(C)C | 0.008 | > 20000 | 0.006 | 17.2 | 8.1 | 8.4 | 1.6 | 0.01 | 3.5 | 281
COC(=O)N[C@H](C(=O)N1C[C@@H](C)C[C@H]1c1nc2cc(-c3cc4sc(-c5ccc6nc([C@@H]7C[C@H](C)CN7C(=O)[C@@H](NC(=O)OC)C(C)C)[nH]c6c5)cc4s3)ccc2[nH]1)C(C)C | 0.004 | > 20000 | 0.009 | – | – | – | – | – | – | –
COC(=O)N[C@H](C(=O)N1C[C@@H](C)C[C@H]1c1nc2cc(-c3cc4sc(-c5ccc6nc([C@@H]7C[C@H](C)CN7C(=O)[C@@H](NC(=O)OC)C(C)C)n(C)c6c5)cc4s3)ccc2[nH]1)C(C)C | 0.024 | > 20000 | 0.004 | – | – | – | – | – | – | –
COC(=O)N[C@H](C(=O)N1C[C@@H](C)C[C@H]1c1nc2cc(-c3cc4sc(-c5cc6nc([C@@H]7C[C@H](C)CN7C(=O)[C@@H](NC(=O)OC)C(C)C)[nH]c6s5)cc4s3)ccc2[nH]1)C(C)C | 0.011 | > 20000 | 0.004 | – | – | – | – | – | – | –
COC(=O)N[C@H](C(=O)N1C[C@@H](C)C[C@H]1c1cc2cc(-c3cc4sc(-c5ccc6[nH]c([C@@H]7C[C@H](C)CN7C(=O)[C@@H](NC(=O)OC)C(C)C)nc6c5)cc4s3)ccc2[nH]1)C(C)C | 1.3 | > 20000 | 0.006 | – | – | – | – | – | – | –
COC(=O)N[C@H](C(=O)N1C[C@@H](C)C[C@H]1c1cc2ccc(-c3cc4sc(-c5ccc6[nH]c([C@@H]7C[C@H](C)CN7C(=O)[C@@H](NC(=O)OC)C(C)C)nc6c5)cc4s3)cc2[nH]1)C(C)C | 0.02 | > 20000 | 0.006 | 16.6 | 4.7 | 8.4 | 1.6 | 0.02 | 4.6 | 659
COC(=O)N[C@H](C(=O)N1C[C@@H](C)C[C@H]1c1nc2cc(-c3cc4sc(-c5ccc6sc([C@@H]7C[C@H](C)CN7C(=O)[C@@H](NC(=O)OC)C(C)C)nc6c5)cc4s3)ccc2[nH]1)C(C)C | 6.8 | > 20000 | 0.025 | – | – | – | – | – | – | –
COC(=O)N[C@H](C(=O)N1C[C@@H](C)C[C@H]1c1cn2cc(-c3cc4sc(-c5ccc6[nH]c([C@@H]7C[C@H](C)CN7C(=O)[C@@H](NC(=O)OC)C(C)C)nc6c5)cc4s3)ccc2n1)C(C)C | 0.006 | 8000 | 0.004 | – | – | – | – | – | – | –
